pKi: −log10 of the molar value.

Chain of GST-tagged-Wee1 kinase (P30291 whole entry): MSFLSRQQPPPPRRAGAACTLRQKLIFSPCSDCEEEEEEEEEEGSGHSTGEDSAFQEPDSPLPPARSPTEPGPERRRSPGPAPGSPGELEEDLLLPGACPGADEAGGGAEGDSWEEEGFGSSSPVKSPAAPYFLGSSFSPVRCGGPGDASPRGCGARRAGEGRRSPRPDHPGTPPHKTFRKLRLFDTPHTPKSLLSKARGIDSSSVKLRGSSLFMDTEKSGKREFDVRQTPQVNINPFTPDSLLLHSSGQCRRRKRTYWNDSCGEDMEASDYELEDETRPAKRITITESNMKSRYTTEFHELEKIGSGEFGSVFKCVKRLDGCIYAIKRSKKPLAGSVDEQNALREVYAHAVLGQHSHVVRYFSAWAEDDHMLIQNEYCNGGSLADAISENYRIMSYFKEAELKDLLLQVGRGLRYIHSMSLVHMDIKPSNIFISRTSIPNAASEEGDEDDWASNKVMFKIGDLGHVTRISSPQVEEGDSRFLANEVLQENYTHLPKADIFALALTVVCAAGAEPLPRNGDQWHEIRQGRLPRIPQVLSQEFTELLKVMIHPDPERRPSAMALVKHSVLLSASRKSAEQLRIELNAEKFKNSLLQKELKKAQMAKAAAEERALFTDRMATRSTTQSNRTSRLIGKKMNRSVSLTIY

In the assay the target is GST-tagged-Wee1 kinase (Homo sapiens, UniProt P30291). The assay can be described thus: Wee1 time-resolved fluorescence equilibrium binding assay (displacement of Oregon Green-labeled ATP-competitive kinase probe). On the procedure:
Wee1 kinase was assayed using a time-resolved fluorescence equilibrium binding assay monitoring displacement of a rapidly reversible Oregon Green-labeled ATP-competitive kinase probe (N-(2-(2-(2-(4-(4-(5-chloro-4-(2-(1-hydroxycyclobutyl)thiazol-5-yl)-1H-pyrrolo[2,3-b]pyridin-2-yl)phenyl)piperazin-1-yl)ethoxy)ethoxy)ethyl)-2′,7′-difluoro-3′,6′-dihydroxy-3-oxo-3H-spiro[isobenzofuran-1,9′-xanthene]-5-carboxamide) by competitive Wee1 inhibitors.
On to `CN1CCN(c2ccc(Nc3ncc4c(=O)n(-c5c(Cl)cccc5Cl)nc(-c5ccnc(C(C)(C)O)c5)c4n3)cc2)CC1` [Example 250, 6-(2,6-dichlorophenyl)-8-[2-(2-hydroxypropan-2-yl)pyridin-4-yl]-2-{[4-(4-methylpiperazin-1-yl)phenyl]amino}pyrimido[4,5-d]pyridazin-5(6H)-one], for which the pKi (in general, the Ki on a negative log10 scale, so that one unit is a factor of ten) was 9.70.

`O=c1c2cnc(Nc3ccc(N4CCNCC4)cc3)nc2c(-c2ccccn2)nn1CCO` [Example 267, 6-(2-hydroxyethyl)-2-{[4-(piperazin-1-yl)phenyl]amino}-8-(pyridin-2-yl)pyrimido[4,5-d]pyridazin-5(6H)-one] had a pKi of 6.62.

Compound `O=c1c2cnc(Nc3ccc4c(c3)CNCC43CC3)nc2c(CO)nn1-c1c(Cl)cccc1Cl` [Example 433, 6-(2,6-dichlorophenyl)-2-(2′,3′-dihydro-1′H-spiro[cyclopropane-1,4′-isoquinolin]-7′-ylamino)-8-(hydroxymethyl)pyrimido[4,5-d]pyridazin-5(6H)-one] showed a pKi of 9.82.

Compound `CN1CCN(c2ccc(Nc3ncc4c(=O)n(-c5c(Cl)cccc5Cl)nc(-c5cccc(C(C)(C)O)n5)c4n3)cc2)CC1` [Example 160, 6-(2,6-dichlorophenyl)-8-[6-(2-hydroxypropan-2-yl)pyridin-2-yl]-2-{[4-(4-methylpiperazin-1-yl)phenyl]amino}pyrimido[4,5-d]pyridazin-5(6H)-one] gave a pKi of 10.00.

`CC(C)n1nc(-c2ccncc2)c2nc(Nc3ccc(N4CCN(C)CC4)cc3)ncc2c1=O` [Example 273, 2-{[4-(4-methylpiperazin-1-yl)phenyl]amino}-6-(propan-2-yl)-8-(pyridin-4-yl)pyrimido[4,5-d]pyridazin-5(6H)-one]: the negative-log Ki (pKi) was 7.96.

Regarding `Cc1nn(-c2c(Cl)cccc2Cl)c(=O)c2cnc(Nc3ccc4c(c3)CCNC4(C)C)nc12` [Example 452, 6-(2,6-dichlorophenyl)-2-[(1,1-dimethyl-1,2,3,4-tetrahydroisoquinolin-6-yl)amino]-8-methylpyrimido[4,5-d]pyridazin-5(6H)-one], the pKi is 9.80.

`C=CCn1nc(-c2cccs2)c2nc(Nc3ccc(N4CCN(C(C)C)CC4)c(OC)c3)ncc2c1=O` [Example 161, 6-allyl-2-{[4-(4-isopropylpiperazin-1-yl)-3-methoxyphenyl]amino}-8-(2-thienyl)pyrimido[4,5-d]pyridazin-5(6H)-one] had a pKi of 8.52.

`CN(C)C1Cc2ccc(Nc3ncc4c(=O)n(-c5c(Cl)cccc5Cl)nc(C(F)F)c4n3)cc2C1` (stereo not shown) [Example 408, 6-(2,6-dichlorophenyl)-8-(difluoromethyl)-2-{[2-(dimethylamino)-2,3-dihydro-1H-inden-5-yl]amino}pyrimido[4,5-d]pyridazin-5(6H)-one] showed a pKi of 9.39.

The compound `Cn1cnc(-c2nn(-c3c(Cl)cccc3Cl)c(=O)c3cnc(Nc4ccc5c(c4)CNCC54CC4)nc23)c1` [Example 341, 6-(2,6-dichlorophenyl)-2-(2′,3′-dihydro-1′H-spiro[cyclopropane-1,4′-isoquinolin]-7′-ylamino)-8-(1-methyl-1H-imidazol-4-yl)pyrimido[4,5-d]pyridazin-5(6H)-one] gave a pKi of 9.00.

As for `Cn1cnc(-c2nn(-c3ncccc3Cl)c(=O)c3cnc(Nc4ccc(N5CCNCC5)cc4)nc23)c1` [Example 350, 6-(3-chloropyridin-2-yl)-8-(1-methyl-1H-imidazol-4-yl)-2-{[4-(piperazin-1-yl)phenyl]amino}pyrimido[4,5-d]pyridazin-5(6H)-one], the pKi is 8.74.

In turn, `CN1Cc2cc(Nc3ncc4c(=O)n(-c5c(Cl)cncc5Cl)nc(-c5cn(C)cn5)c4n3)ccc2C2(CC2)C1` [Example 359, 6-(3,5-dichloropyridin-4-yl)-2-[(2′-methyl-2′,3′-dihydro-1′H-spiro[cyclopropane-1,4′-isoquinolin]-7′-yl)amino]-8-(1-methyl-1H-imidazol-4-yl)pyrimido[4,5-d]pyridazin-5(6H)-one] had a pKi of 8.30.

The compound `O=c1c2cnc(Nc3ccc4c(c3)CNCC4)nc2c(C(F)(F)F)nn1-c1c(Cl)cccc1Cl` [Example 421, 6-(2,6-dichlorophenyl)-2-(1,2,3,4-tetrahydroisoquinolin-7-ylamino)-8-(trifluoromethyl)pyrimido[4,5-d]pyridazin-5(6H)-one] gave a pKi of 9.30.

As for `CCNCCn1cc(-c2nn(-c3c(Cl)cccc3Cl)c(=O)c3cnc(Nc4ccc(N5CCN(C)CC5)cc4)nc23)cn1` [Example 202, 6-(2,6-dichlorophenyl)-8-{1-[2-(ethylamino)ethyl]-1H-pyrazol-4-yl}-2-{[4-(4-methylpiperazin-1-yl)phenyl]amino}pyrimido[4,5-d]pyridazin-5(6H)-one], the pKi is 9.52.

As for `O=c1c2cnc(Nc3ccc4c(c3)CNCC43CC3)nc2c(-c2ccccn2)nn1-c1c(Cl)cccc1Cl` [Example 221, 6-(2,6-dichlorophenyl)-2-(2′,3′-dihydro-1′H-spiro[cyclopropane-1,4′-isoquinolin]-7′-ylamino)-8-(pyridin-2-yl)pyrimido[4,5-d]pyridazin-5(6H)-one], the pKi was 9.70.

The compound `CCc1nn(-c2c(Cl)cccc2Cl)c(=O)c2cnc(Nc3ccc(N4CCNC(=O)C4)cc3)nc12` [Example 470, 6-(2,6-dichlorophenyl)-8-ethyl-2-{[4-(3-oxopiperazin-1-yl)phenyl]amino}pyrimido[4,5-d]pyridazin-5(6H)-one] showed a pKi of 9.00.

As for `CN1CCN(c2ccc(Nc3ncc4c(=O)n(-c5c(Cl)cccc5Cl)nc(-c5ccn(CCN)n5)c4n3)cc2)CC1` [Example 235, 8-[1-(2-aminoethyl)-1H-pyrazol-3-yl]-6-(2,6-dichlorophenyl)-2-{[4-(4-methylpiperazin-1-yl)phenyl]amino}pyrimido[4,5-d]pyridazin-5(6H)-one], the pKi is 10.00.

`O=c1c2cnc(Nc3ccc(N4CCNCC4)cc3)nc2c(C2CC2)nn1-c1c(Cl)cccc1Cl` [Example 392, 8-cyclopropyl-6-(2,6-dichlorophenyl)-2-{[4-(piperazin-1-yl)phenyl]amino}pyrimido[4,5-d]pyridazin-5(6H)-one] gave a pKi of 9.57.

For `Cc1ccccc1-n1nc(-c2ccccc2)c2nc(Nc3ccc4c(c3)CN(C)CC4)ncc2c1=O` [Example 171, 6-(2-methylphenyl)-2-[(2-methyl-1,2,3,4-tetrahydroisoquinolin-7-yl)amino]-8-phenylpyrimido[4,5-d]pyridazin-5(6H)-one], the pKi is 9.22.

In turn, `O=C1CCCN1c1ccc(Nc2ncc3c(=O)n(-c4ccccc4Cl)nc(-c4cccs4)c3n2)cc1` [Example 121, 6-(2-chlorophenyl)-2-{[4-(2-oxopyrrolidin-1-yl)phenyl]amino}-8-(2-thienyl)pyrimido[4,5-d]pyridazin-5(6H)-one] gave a pKi of 8.52.

As for `CCc1nn(-c2c(Cl)cccc2Cl)c(=O)c2cnc(Nc3ccc4c(c3)CCN(C)C4)nc12` [Example 492, 6-(2,6-dichlorophenyl)-8-ethyl-2-[(2-methyl-1,2,3,4-tetrahydroisoquinolin-6-yl)amino]pyrimido[4,5-d]pyridazin-5(6H)-one], the pKi is 9.25.

Regarding `CCCc1nn(CCC#N)c(=O)c2cnc(Nc3ccc(N4CCN(C)CC4)cc3)nc12` [Example 21, 3-[2-{[4-(4-methylpiperazin-1-yl)phenyl]amino}-5-oxo-8-propylpyrimido[4,5-d]pyridazin-6(5H)-yl]propanenitrile], the negative logarithm of the Ki (pKi) was 6.46.

`CN1CCN(c2ccc(Nc3ncc4c(=O)n(-c5c(Cl)cccc5Cl)nc(-c5cccc(C(=O)N6CCC6)c5)c4n3)cc2)CC1` [Example 216, 8-[3-(azetidin-1-ylcarbonyl)phenyl]-6-(2,6-dichlorophenyl)-2-{[4-(4-methylpiperazin-1-yl)phenyl]amino}pyrimido[4,5-d]pyridazin-5(6H)-one] gave a pKi of 10.00.

`CN1CCN(c2ccc(Nc3ncc4c(=O)n(-c5c(F)cccc5Cl)nc(-c5ccncn5)c4n3)cc2)CC1` [Example 298, 6-(2-chloro-6-fluorophenyl)-2-{[4-(4-methylpiperazin-1-yl)phenyl]amino}-8-(pyrimidin-4-yl)pyrimido[4,5-d]pyridazin-5(6H)-one] had a pKi of 8.74.

`Cc1nn(-c2c(Cl)cccc2Cl)c(=O)c2cnc(Nc3ccc(C4CCNCC4)cc3)nc12` [Example 458, 6-(2,6-dichlorophenyl)-8-methyl-2-{[4-(piperidin-4-yl)phenyl]amino}pyrimido[4,5-d]pyridazin-5(6H)-one] had a pKi of 9.64.

In turn, `O=c1c2cnc(Nc3ccc(N4CCNCC4)cc3)nc2c(-c2cncs2)nn1-c1c(Cl)cccc1Cl` [Example 319, 6-(2,6-dichlorophenyl)-2-{[4-(piperazin-1-yl)phenyl]amino}-8-(1,3-thiazol-5-yl)pyrimido[4,5-d]pyridazin-5(6H)-one] had a negative-log Ki (pKi) of 9.41.

The compound `O=C1CCCN1c1ccc(-c2nn(-c3c(Cl)cccc3Cl)c(=O)c3cnc(Nc4ccc(N5CCNCC5)cc4)nc23)cc1` [Example 229, 6-(2,6-dichlorophenyl)-8-[4-(2-oxopyrrolidin-1-yl)phenyl]-2-{[4-(piperazin-1-yl)phenyl]amino}pyrimido[4,5-d]pyridazin-5(6H)-one] had a pKi of 9.70.

With `CN1CCN(c2ccc(Nc3ncc4c(=O)n(-c5ccccc5Cl)nc(-c5cccnc5)c4n3)cc2)CC1` [Example 98, 6-(2-chlorophenyl)-2-{[4-(4-methylpiperazin-1-yl)phenyl]amino}-8-(pyridin-3-yl)pyrimido[4,5-d]pyridazin-5(6H)-one], the pKi was 9.30.

As to `Cn1ccnc1-c1nn(-c2c(Cl)cccc2Cl)c(=O)c2cnc(Nc3ccc4c(c3)CNCC43CC3)nc12` [Example 356, 6-(2,6-dichlorophenyl)-2-(2′,3′-dihydro-1′H-spiro[cyclopropane-1,4′-isoquinolin]-7′-ylamino)-8-(1-methyl-1H-imidazol-2-yl)pyrimido[4,5-d]pyridazin-5(6H)-one], the pKi was 9.00.

The values above are taken from patent US8796289B2 (AbbVie Inc., priority 2011, dated 2014).
